# From patent publication US7678781B2, “11-phosphorous steroid derivatives useful as progesterone receptor modulators” (Janssen Pharmaceutica N.V., priority 2006, dated 2010)
# How the values were obtained:
# [1] = system: T47D human breast cancer cells; test: Alkaline phosphatase assay in human breast cancer cell line T47D; assay type: cell-based; conditions: 24 h, read-out: T47D IC50 (nM)
# Protocol: Alkaline Phosphatase Assay in Human Breast Cancer Cell Line T47D
# T47D human breast cancer cells were grown in RPMI medium without phenol red (Invitrogen) containing 10% (v/v) heat-inactivated fetal bovine serum (FBS; Hyclone), 1% (v/v) penicillin-streptomycin (Invitrogen), 1% (w/v) glutamine (Invitrogen), and […] insulin (Sigma). Incubation conditions were 37° C. in a humidified 5% (v/v) carbon dioxide environment.
# The cells were plated in 96-well tissue culture plates at 10,000 cells per well in assay medium [RPMI medium without phenol red (Invitrogen) containing 5% (v/v) charcoal-treated FBS (Hyclone) and 1% (v/v) penicillin-streptomycin (Invitrogen)]. Two days later, the medium was decanted and test compound or control were added at a final concentration of 0.1% (v/v) dimethyl sulfoxide in fresh assay medium. Twenty-four hours later, an alkaline phosphatase assay was performed using a SEAP kit (BD Biosciences Clontech, Palo Alto, Calif.). Briefly, the medium was decanted and the cells were fixed for 30 minutes at room temperature with 5% (v/v) formalin (Sigma). The cells were washed once with room temperature Hank's buffered saline solution (Invitrogen). Equal volumes (0.05 mL) of 1× Dilution Buffer, Assay Buffer and 1:20 substrate/enhancer mixture were then added. After 1 hour incubation at room temperature in the dark, the lysate was transferred to a white 96-well plate (Dynex) and luminescence was read using a LuminoSkan Ascent (Thermo Electron, Woburn, Mass.).
# [2] = system: A549 Human lung carcinoma cells; test: Transient transfection and Steady Glo luciferase assay in A549 cells with dexamethasone challenge; assay type: cell-based; conditions: transfected A549 cells, challenged with dexamethasone (glucocorticoid agonist), 24 h
# Protocol: Transient Transfection and Steady Glo Luciferase Assay
# A549 Human lung carcinoma cells were grown in F-12K Nutrient Mixture containing 10% (v/v) fetal bovine serum (FBS; Invitrogen), 2 mM glutamine and 0.15% sodium dicarbonate(Invitrogen).
# A549 cells were split 1 to 3 in 175 cm tissue culture flask. The cells were incubated at 37° C. in CO2 incubator until the cells were 95% confluent (typically 24-30 hours).
# The following solutions were prepared in sterile tubes: (a) Solution A: 1.5 μg/ml of DNA in 8.5 ml OPTI-MEM I Reduced Serum Medium. (GIBCO cat# 31985) and (b) Solution B: 6 μl/ml of DMRIE-C Reagent into […] OPTI-MEM I. The two solutions were combined and mixed gently, then incubated at room temperature for 40 minutes.
# The A549 cells prepared above were washed with […] of OPTI-MEM I. The medium was removed and 17 ml of the lipid-DNA complex solution was overlayed onto cells. The cells ere then incubated for 16 h at 37° C. in CO2 incubator. The DNA-containing medium was removed and 30 ml of growth medium was added. (5% Charcoal treated FBS) After 5-6 h, the cells were seeded in a 96 well plate and the cells incubated overnight at 37° C. in CO2 incubator.
# To each well was then added 5 μl of test compounds and the cells incubated at 37° C. for 10 min. […] A 150 μL sample from each well was then transferred into a DYNEX Microlitel plate and read on Top-counter.
SMILES,IC50 [1],IC50 [2]
C=C1CCO[C@]12CC[C@H]1[C@@H]3CCC4=CC(=O)CCC4=C3[C@@H](c3ccc(P(C)(C)=O)cc3)C[C@@]12C [Compound 4],3 nM,
C[C@]12C[C@H](c3ccc(P(=O)(Oc4ccccc4)Oc4ccccc4)cc3)C3=C4CCC(=O)C=C4CC[C@H]3[C@@H]1CCC2=O [Compound 33],> 1000 nM,217 nM
C=C1CCO[C@]12CC[C@H]1[C@@H]3CCC4=CC(=O)CCC4=C3[C@@H](c3ccc(P(=O)(Oc4ccccc4)Oc4ccccc4)cc3)C[C@@]12C [Compound 37],3.3 nM,34.3 nM
